Measurements reported in the supplement of paper PMC10307832.

Columns and labels:
Experiment in all cases: relative viability (nuclei count vs DMSO), 5 days (fraction); higher = more cells survive
QS11 + Olaparib = compound: C1CC2=C(C1)C=C(C=C2)OC3=NC(=C4C(=N3)N(C=N4)CC5=CC=C(C=C5)C6=CC=CC=C6)N[C@@H](CC7=CC=CC=C7)CO [QS11] + O=C(c1cc(Cc2n[nH]c(=O)c3ccccc23)ccc1F)N1CCN(C(=O)C2CC2)CC1 [Olaparib] (partner 8 µM)
In short: (§1)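 A single step with final 0.05% Triton X-100, 1% formaldehyde and 1 ug/ml Hoechst fixed the cells and stained nuclei 5 days after treatment. Lung cancer cell lines in 1536-well plates had been treated by pin tool the day after seeding with one drug alone or a fixed anchor-drug dose plus five library-drug doses (not always all listed) in √10 steps, and nuclei were counted on 4× images. Relative viability is the ratio of nuclei in treated wells to nuclei in vehicle wells, taken as the median of duplicate plates.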

AZ628 + Olaparib = compound: CC1=C(C=C(C=C1)NC(=O)C2=CC(=CC=C2)C(C)(C)C#N)NC3=CC4=C(C=C3)N=CN(C4=O)C [AZ628] + O=C(c1cc(Cc2n[nH]c(=O)c3ccccc23)ccc1F)N1CCN(C(=O)C2CC2)CC1 [Olaparib] (partner 8 µM)
In short: as §1

AZ628 + Phenformin = compound: CC1=C(C=C(C=C1)NC(=O)C2=CC(=CC=C2)C(C)(C)C#N)NC3=CC4=C(C=C3)N=CN(C4=O)C [AZ628] + N=C(N)NC(=N)NCCc1ccccc1 [Phenformin] (partner 250 µM)
In short: as §1

AZ628 + Pemetrexed = compound: CC1=C(C=C(C=C1)NC(=O)C2=CC(=CC=C2)C(C)(C)C#N)NC3=CC4=C(C=C3)N=CN(C4=O)C [AZ628] + Nc1nc2[nH]cc(CCc3ccc(C(=O)N[C@@H](CCC(=O)O)C(=O)O)cc3)c2c(=O)[nH]1 [Pemetrexed] (partner 0.2 µM)
In short: as §1

| Cell Line | relative viability (QS11 + Olaparib; first compound 0.08 µM) | relative viability (QS11 + Olaparib; first compound 0.253 µM) | relative viability (QS11 + Olaparib; first compound 0.8 µM) | relative viability (QS11 + Olaparib; first compound 2.53 µM) | relative viability (QS11 + Olaparib; first compound 8 µM) | relative viability (AZ628 + Olaparib; first compound 0.08 µM) | relative viability (AZ628 + Olaparib; first compound 0.253 µM) | relative viability (AZ628 + Olaparib; first compound 0.8 µM) | relative viability (AZ628 + Olaparib; first compound 2.53 µM) | relative viability (AZ628 + Olaparib; first compound 8 µM) | relative viability (AZ628 + Phenformin; first compound 0.08 µM) | relative viability (AZ628 + Phenformin; first compound 0.253 µM) | relative viability (AZ628 + Phenformin; first compound 0.8 µM) | relative viability (AZ628 + Phenformin; first compound 2.53 µM) | relative viability (AZ628 + Phenformin; first compound 8 µM) | relative viability (AZ628 + Pemetrexed; first compound 0.08 µM) | relative viability (AZ628 + Pemetrexed; first compound 0.253 µM) | relative viability (AZ628 + Pemetrexed; first compound 0.8 µM) | relative viability (AZ628 + Pemetrexed; first compound 2.53 µM) | relative viability (AZ628 + Pemetrexed; first compound 8 µM) |
| --- | --- | --- | --- | --- | --- | --- | --- | --- | --- | --- | --- | --- | --- | --- | --- | --- | --- | --- | --- | --- |
| HCC-78 | 0.665 | 1.02 | 0.83 | 0.859 | 0.806 | 0.94 | 0.808 | 0.807 | 0.786 | 0.903 | 0.814 | 0.631 | 0.767 | 0.705 | 0.726 | 0.95 | 0.905 | 0.892 | 0.89 | 0.915 |
| HCC-366 | 0.41 | 0.467 | – | 0.452 | 0.212 | 0.358 | 0.31 | 0.263 | 0.271 | 0.192 | 0.585 | 0.572 | 0.554 | 0.598 | 0.499 | 0.156 | 0.215 | 0.225 | 0.169 | 0.161 |
| HCC-827 | 0.587 | 0.712 | 0.656 | 0.775 | 0.606 | 0.652 | 0.621 | 0.704 | 0.661 | 0.528 | 0.445 | 0.421 | 0.434 | 0.374 | 0.335 | 0.258 | 0.209 | 0.256 | 0.314 | 0.226 |
| HOP-62 | 0.477 | 0.46 | 0.31 | 0.319 | 0.382 | 0.543 | 0.359 | 0.633 | 0.68 | 0.39 | 0.792 | 0.821 | 0.707 | 0.746 | 0.437 | 0.311 | 0.343 | 0.305 | 0.409 | 0.271 |
| IA-LM | 1 | 0.924 | 0.706 | 0.741 | 0.78 | 1.03 | 0.815 | 0.846 | 0.875 | 0.363 | – | – | – | – | – | – | – | – | – | – |
| LC-2-ad | 0.668 | 0.719 | 0.551 | 0.706 | 0.781 | 0.712 | 0.646 | 0.823 | 0.736 | 0.681 | 0.606 | 0.562 | 0.556 | 0.49 | 0.532 | 0.3 | 0.29 | 0.262 | 0.274 | 0.266 |
| LCLC-103H | 0.799 | 0.849 | – | 0.791 | 0.814 | 0.797 | 0.77 | 0.761 | 0.779 | 0.769 | 0.358 | 0.329 | 0.343 | 0.302 | 0.308 | 0.423 | 0.464 | 0.445 | 0.437 | 0.402 |
| LK-2 | 0.569 | 0.764 | 1.03 | 0.734 | 0.856 | 0.874 | 0.549 | 0.684 | 0.689 | 0.309 | 0.508 | 0.312 | 0.557 | 0.304 | 0.172 | 0.273 | 0.221 | 0.263 | 0.343 | 0.15 |
| LOU-NH91 | 0.893 | 0.9 | 0.876 | 0.937 | 0.998 | 0.935 | 0.94 | 0.965 | 0.936 | 0.764 | 0.749 | 0.654 | 0.776 | 0.661 | 0.438 | 0.345 | 0.384 | 0.332 | 0.36 | 0.339 |
| LU99A | 0.253 | 0.311 | 0.27 | 0.258 | 0.253 | 0.269 | 0.255 | 0.272 | 0.296 | 0.214 | 0.808 | 0.67 | 0.694 | 0.782 | 0.551 | 0.191 | 0.186 | 0.215 | 0.215 | 0.175 |
| LXF-289 | 1.03 | 1.1 | 0.823 | 0.95 | 0.963 | 1.13 | 1.01 | 0.922 | 1.08 | 0.756 | 0.527 | 0.499 | 0.473 | 0.501 | 0.362 | 0.939 | 0.722 | 0.893 | 0.866 | 0.678 |
| NCI-H23 | 0.297 | 0.226 | 0.245 | 0.269 | 0.264 | 0.316 | 0.312 | 0.331 | 0.227 | 0.216 | 0.841 | 0.806 | 0.619 | 0.716 | 0.595 | 0.616 | 0.464 | 0.419 | 0.45 | 0.396 |
| NCI-H322M | 0.715 | 0.947 | 0.802 | 0.846 | 1.06 | 0.805 | 0.755 | 0.819 | 0.774 | 0.783 | 0.783 | 0.737 | 0.725 | 0.769 | 0.663 | 0.726 | 0.664 | 0.604 | 0.642 | 0.558 |
| NCI-H727 | 0.653 | 0.661 | 0.654 | 0.589 | 0.753 | 0.603 | – | – | 0.506 | 0.333 | 0.422 | 0.386 | 0.374 | 0.329 | 0.341 | – | – | – | – | – |
| NCI-H1299 | 0.955 | 1.03 | 0.848 | 0.928 | 0.793 | 1.12 | 1.18 | 1.12 | 1.27 | 0.628 | – | – | – | – | – | – | – | – | – | – |
| NCI-H1563 | – | – | – | – | – | – | – | – | – | – | 0.694 | 0.661 | 0.672 | 0.654 | 0.679 | 0.773 | 0.827 | 0.86 | 0.756 | 0.764 |
| NCI-H1623 | – | – | – | – | – | – | – | – | – | – | 0.6 | 0.524 | 0.382 | 0.505 | 0.437 | – | – | – | – | – |
| NCI-H1648 | 0.812 | 0.413 | 0.727 | 0.77 | 1.09 | 1.09 | 0.62 | 1.01 | 0.767 | 0.556 | – | – | – | – | – | 1.06 | 0.702 | 0.614 | 0.549 | 0.642 |
| NCI-H1703 | 0.411 | 0.363 | 0.597 | 0.501 | 0.551 | 0.239 | 0.216 | 0.216 | 0.178 | 0.177 | – | – | – | – | – | – | – | – | – | – |
